From patent publication US9580435B2, “Pyrrolo[2,3-D]pyrimidine derivatives as CB2 receptor agonists” (priority 2013, dated 2017) come the findings set out here.

Like-named read-outs stand apart in the source and are kept apart here.

The target of one experiment is T1, human CB2 receptors (Homo sapiens, UniProt P34972).
T1 construct: expressed in transfected cells; host or cells: CHO cells
In words: functional cAMP assay, CHO cells expressing human CB2 receptors. The experiment is classed as cell-based. On the procedure:
(§1) CHO cells expressing human CB1 or CB2 receptors are seeded 17-24 hours prior to the experiment 50.000 cells per well in a black 96 well plate with flat clear bottom (Corning Costar #3904) in DMEM (Invitrogen No. 31331), lx HT supplement, with 10% fetal calf serum and incubated at 5% CO2 and 37° C. in a humidified incubator. The growth medium was exchanged with Krebs Ringer Bicarbonate buffer with 1 mM IBMX and incubated at 30° C. for 30 min. Compounds were added to a final assay volume of 100 μl and incubated for 30 min at 30° C. Using the cAMP-Nano-TRF detection kit the assay (Roche Diagnostics) was stopped by the addition of 50 μl lysis reagent (Tris, NaCl, 1.5% Triton X100, 2.5% NP40, 10% NaN3) and 50 μl detection solutions (20 μM mAb Alexa700-cAMP 1:1, and 48 μM Ruthenium-2-AHA-cAMP) and shaken for 2 h at room temperature. The time-resolved energy transfer is measured by a TRF reader (Evotec Technologies GmbH), equipped with a ND:YAG laser as excitation source. The plate is measured twice with the excitation at 355 nm and at the emission with a delay of 100 ns and a gate of 100 ns, total exposure time 10 s at 730 (bandwidth 30 nm) or 645 nm (bandwidth 75 nm), respectively. The FRET signal is calculated as follows: FRET=T730-Alexa730-P(T645-B645) with P=Ru730-B730/Ru645-B645, where T730 is the test well measured at 730 nM, T645 is the test well measured at 645 nm, B730 and B645 are the buffer controls at 730 nm and 645 nm, respectively. cAMP content is determined from the function of a standard curve spanning from 10 μM to 0.13 nM cAMP.
(§2) EC50 values were determined using Activity Base analysis (ID Business Solution, Limited). The EC50 values for a wide range of cannabinoid agonists generated from this assay were in agreement with the values published in the scientific literature.
In general terms: Cyclic AMP is a second messenger, typically raised through Gs and lowered through Gi signalling.

The next experiment concerns the target T2, human CB1 receptors (Homo sapiens, UniProt P21554).
T2 construct: expressed in transfected cells; host or cells: CHO cells
Nature of the experiment: functional cAMP assay, CHO cells expressing human CB1 receptors. In kind it is cell-based. On the procedure:
as §1, §2

Where [1] appears, read: human EC50, functional cAMP assay, CHO cells expressing human CB2, read-out: EC50:CB2.

The EC50 is the concentration needed to bring the measured effect to its halfway point.

T2 sequence (P21554 whole entry): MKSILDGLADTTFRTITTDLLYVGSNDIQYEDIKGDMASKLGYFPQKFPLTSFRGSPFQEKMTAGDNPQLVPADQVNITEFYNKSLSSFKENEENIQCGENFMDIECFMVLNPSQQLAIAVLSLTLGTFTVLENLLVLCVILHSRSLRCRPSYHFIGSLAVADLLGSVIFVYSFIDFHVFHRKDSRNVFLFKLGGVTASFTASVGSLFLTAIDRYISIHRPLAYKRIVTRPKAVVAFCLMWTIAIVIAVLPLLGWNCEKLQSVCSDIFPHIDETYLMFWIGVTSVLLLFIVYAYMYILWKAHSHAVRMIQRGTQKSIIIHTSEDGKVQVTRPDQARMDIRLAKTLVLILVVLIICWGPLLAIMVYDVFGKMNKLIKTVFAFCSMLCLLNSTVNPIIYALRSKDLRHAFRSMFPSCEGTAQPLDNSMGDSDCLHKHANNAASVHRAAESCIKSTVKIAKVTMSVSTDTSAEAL
T1 sequence (P34972 whole entry): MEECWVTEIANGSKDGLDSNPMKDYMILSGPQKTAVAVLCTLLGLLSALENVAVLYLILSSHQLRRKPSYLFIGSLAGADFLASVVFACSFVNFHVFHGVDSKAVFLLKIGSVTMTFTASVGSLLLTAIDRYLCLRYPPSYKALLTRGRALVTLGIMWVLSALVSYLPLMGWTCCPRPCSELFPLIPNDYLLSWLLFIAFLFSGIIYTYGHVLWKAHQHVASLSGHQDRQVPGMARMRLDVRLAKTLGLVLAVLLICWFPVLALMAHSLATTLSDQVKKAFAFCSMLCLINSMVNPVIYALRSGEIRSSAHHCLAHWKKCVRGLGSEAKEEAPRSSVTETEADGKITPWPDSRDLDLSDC

Regarding `Cc1nnc(Cn2ccc3c(N4CC5(COC5)C4)nc(C(C)(C)C)nc32)o1` [Example 23, 6-[2-tert-butyl-7-[(5-methyl-1,3,4-oxadiazol-2-yl)methyl]pyrrolo[2,3-d]pyrimidin-4-yl]-2-oxa-6-azaspiro[3.3]heptane], the EC50 at human CB2 receptors (setting [1]) is 0.468 µM; at human CB1 receptors, greater than 10 µM.
For `CC(C)(C)c1nc(N2CCC(O)C2)c2ccn(Cc3ccccc3Cl)c2n1` (stereo not drawn) [Example 24, 1-[2-tert-butyl-7-[(2-chlorophenyl)methyl]pyrrolo[2,3-d]pyrimidin-4-yl]pyrrolidin-3-ol], in that order: 0.411 µM and greater than 10 µM.
In the case of `CC(C)(C)c1nc(N2CCC(O)C2)c2ccn(Cc3ccc(F)cc3Cl)c2n1` (stereo not drawn) [Example 25, 1-[2-tert-butyl-7-[(2-chloro-4-fluorophenyl)methyl]pyrrolo[2,3-d]pyrimidin-4-yl]pyrrolidin-3-ol], the results for the EC50 on human CB2 receptors and on human CB1 receptors were 0.0102 µM and 0.895 µM, respectively.
`CC(C)(C)c1nc(N2CCC(O)C2)c2ccn(Cc3ccccc3S(C)(=O)=O)c2n1` (stereo not drawn) [Example 26, 1-[2-tert-butyl-7-[(2-methylsulfonylphenyl)methyl]pyrrolo[2,3-d]pyrimidin-4-yl]pyrrolidin-3-ol]: the EC50 at human CB2 receptors was 0.0168 µM; on human CB1 receptors, greater than 10 µM.
For `CC(C)(C)c1nc(N2CCC(O)C2)c2ccn(Cc3ccccc3C(F)(F)F)c2n1` (stereo not drawn) [Example 27, 1-[2-tert-butyl-7-[[2-(trifluoromethyl)phenyl]methyl]pyrrolo[2,3-d]pyrimidin-4-yl]pyrrolidin-3-ol], in that order: 0.0069 µM and greater than 10 µM.
For `CC(C)(C)c1nc(N2CCC(O)C2)c2ccn(Cc3cccc(Cl)c3Cl)c2n1` (stereo not drawn) [Example 28, 1-[2-tert-butyl-7-[(2,3-dichlorophenyl)methyl]pyrrolo[2,3-d]pyrimidin-4-yl]pyrrolidin-3-ol], in that order: 0.014 µM and greater than 10 µM.
For `CC(C)(C)c1nc(N2CCC(O)C2)c2ccn(Cc3cccnc3Cl)c2n1` (stereo not drawn) [Example 29, 1-[2-tert-butyl-7-[(2-chloropyridin-3-yl)methyl]pyrrolo[2,3-d]pyrimidin-4-yl]pyrrolidin-3-ol], in that order: 0.0036 µM and greater than 10 µM.
Regarding `CC(C)(C)c1nc(N2CCC(O)C2)c2ccn(Cc3ncccc3Cl)c2n1` (stereo not drawn) [Example 30, 1-[2-tert-butyl-7-[(3-chloropyridin-2-yl)methyl]pyrrolo[2,3-d]pyrimidin-4-yl]pyrrolidin-3-ol], the EC50 on human CB2 receptors is 0.0084 µM; on human CB1 receptors, greater than 10 µM.
Consider `Cc1noc(Cn2ccc3c(N4CCC(O)C4)nc(C(C)(C)C)nc32)n1` (stereo not drawn) [Example 31, 1-[2-tert-butyl-7-[(3-methyl-1,2,4-oxadiazol-5-yl)methyl]pyrrolo[2,3-d]pyrimidin-4-yl]pyrrolidin-3-ol], for which the figures for the EC50 on human CB2 receptors (setting [1]) and at human CB1 receptors were 0.316 µM and greater than 10 µM, respectively.
For the compound `Cc1nonc1Cn1ccc2c(N3CCC(O)C3)nc(C(C)(C)C)nc21` (stereo not drawn) [Example 32, 1-[2-tert-butyl-7-[(4-methyl-1,2,5-oxadiazol-3-yl)methyl]pyrrolo[2,3-d]pyrimidin-4-yl]pyrrolidin-3-ol], the EC50 is 0.0189 µM at human CB2 receptors and greater than 10 µM at human CB1 receptors.
As for `Cc1nnc(Cn2ccc3c(N4CCC(O)C4)nc(C(C)(C)C)nc32)o1` (stereo not drawn) [Example 33, 1-[2-tert-butyl-7-[(5-methyl-1,3,4-oxadiazol-2-yl)methyl]pyrrolo[2,3-d]pyrimidin-4-yl]pyrrolidin-3-ol], the EC50 at human CB2 receptors (setting [1]) was 0.35 µM; at human CB1 receptors it was greater than 10 µM.
Turning to `Cn1nnnc1Cn1ccc2c(N3CCC(O)C3)nc(C(C)(C)C)nc21` (stereo not drawn) [Example 34, 1-[2-tert-butyl-7-[(1-methyltetrazol-5-yl)methyl]pyrrolo[2,3-d]pyrimidin-4-yl]pyrrolidin-3-ol], the values for the EC50 at human CB2 receptors (setting [1]) and at human CB1 receptors were 0.134 µM and greater than 10 µM, respectively.
For `CC(=O)OC1CCN(c2nc(C(C)(C)C)nc3c2ccn3Cc2nnnn2C)C1` (stereo not drawn) [Example 35, [1-[2-tert-butyl-7-[(1-methyltetrazol-5-yl)methyl]pyrrolo[2,3-d]pyrimidin-4-yl]pyrrolidin-3-yl]acetate], in that order: 0.278 µM and greater than 10 µM.
Turning to `CC(=O)OC1CCN(c2nc(C(C)(C)C)nc3c2ccn3Cc2cccc(Cl)c2Cl)C1` (stereo not drawn) [Example 36, [1-[2-tert-butyl-7-[(2,3-dichlorophenyl)methyl]pyrrolo[2,3-d]pyrimidin-4-yl]pyrrolidin-3-yl]acetate], the EC50 at human CB2 receptors is 0.0853 µM; on human CB1 receptors, greater than 10 µM.
`CC(=O)OC1CCN(c2nc(C(C)(C)C)nc3c2ccn3Cc2nonc2C)C1` (stereo not drawn) [Example 37, [1-[2-tert-butyl-7-[(4-methyl-1,2,5-oxadiazol-3-yl)methyl]pyrrolo[2,3-d]pyrimidin-4-yl]pyrrolidin-3-yl]acetate]: the half-maximal effective concentration (EC50) was 0.0887 µM on human CB2 receptors and greater than 10 µM at human CB1 receptors.
Regarding `CC(C)(C)c1nc(N2CCC(O)C2)c2ccn(Cc3nnnn3C3CC3)c2n1` (stereo not drawn) [Example 38, 1-[2-tert-butyl-7-[(1-cyclopropyltetrazol-5-yl)methyl]pyrrolo[2,3-d]pyrimidin-4-yl]pyrrolidin-3-ol], the EC50 was 0.173 µM on human CB2 receptors (setting [1]) and greater than 10 µM at human CB1 receptors.
Take `CC(C)(C)c1nc(N2CCC(O)C2)c2ccn([C@@H]3CCOC3)c2n1` (stereo partly drawn) [Example 39, 1-[2-tert-butyl-7-[(3R)-oxolan-3-yl]pyrrolo[2,3-d]pyrimidin-4-yl]pyrrolidin-3-ol]: the EC50 at human CB2 receptors is 0.035 µM; at human CB1 receptors it was greater than 10 µM.
For `CC(C)(C)c1nc(N2CCC(O)C2)c2ccn(Cc3c[nH]nc3C(F)(F)F)c2n1` (stereo not drawn) [Example 40, 1-[2-tert-butyl-7-[[3-(trifluoromethyl)-1H-pyrazol-4-yl]methyl]pyrrolo[2,3-d]pyrimidin-4-yl]pyrrolidin-3-ol], in that order: 0.0356 µM and greater than 10 µM.
For `CC(C)(C)c1nc(N2CCC(F)(F)C2)c2ccn(Cc3c[nH]nc3C(F)(F)F)c2n1` [Example 41, 2-tert-butyl-4-(3,3-difluoropyrrolidin-1-yl)-7-[[3-(trifluoromethyl)-1H-pyrazol-4-yl]methyl]pyrrolo[2,3-d]pyrimidine] the same measures were 0.0135 µM and 1.84 µM.
For `CC(C)(C)c1nc(N2CC[C@H](O)C2)c2ccn(Cc3cccc(Cl)c3Cl)c2n1` [Example 42, (3S)-1-[2-tert-butyl-7-[(2,3-dichlorophenyl)methyl]pyrrolo[2,3-d]pyrimidin-4-yl]pyrrolidin-3-ol] the same measures were 0.0035 µM and greater than 10 µM.
In the case of `CC(C)(C)c1nc(N2CC[C@H](O)C2)c2ccn(Cc3ccc(F)cc3Cl)c2n1` [Example 43, (3S)-1-[2-tert-butyl-7-[(2-chloro-4-fluorophenyl)methyl]pyrrolo[2,3-d]pyrimidin-4-yl]pyrrolidin-3-ol], the EC50 on human CB2 receptors is 0.0063 µM; at human CB1 receptors it was greater than 10 µM.
For `CC(C)(C)c1nc(N2CC[C@H](O)C2)c2ccn(Cc3ccccc3C(F)(F)F)c2n1` [Example 44, (3S)-1-[2-tert-butyl-7-[[2-(trifluoromethyl)phenyl]methyl]pyrrolo[2,3-d]pyrimidin-4-yl]pyrrolidin-3-ol], in that order: 0.0033 µM and greater than 10 µM.
For `CC(C)(C)c1nc(N2CC[C@H](O)C2)c2ccn(Cc3ccccc3S(C)(=O)=O)c2n1` [Example 45, (3S)-1-[2-tert-butyl-7-[(2-methylsulfonylphenyl)methyl]pyrrolo[2,3-d]pyrimidin-4-yl]pyrrolidin-3-ol] the same measures were 0.0042 µM and greater than 10 µM.
For `CC(C)(C)c1nc(N2CC[C@H](O)C2)c2ccn(Cc3cccnc3Cl)c2n1` [Example 46, (3S)-1-[2-tert-butyl-7-[(2-chloropyridin-3-yl)methyl]pyrrolo[2,3-d]pyrimidin-4-yl]pyrrolidin-3-ol], in that order: 0.0051 µM and greater than 10 µM.
For the compound `CC(C)(C)c1nc(N2CC[C@H](O)C2)c2ccn(Cc3ncccc3Cl)c2n1` [Example 47, (3S)-1-[2-tert-butyl-7-[(3-chloropyridin-2-yl)methyl]pyrrolo[2,3-d]pyrimidin-4-yl]pyrrolidin-3-ol], the concentration for a half-maximal effect (EC50) on human CB2 receptors is 0.0058 µM; at human CB1 receptors, greater than 10 µM.
For `Cc1nonc1Cn1ccc2c(N3CC[C@H](O)C3)nc(C(C)(C)C)nc21` [Example 48, (3S)-1-[2-tert-butyl-7-[(4-methyl-1,2,5-oxadiazol-3-yl)methyl]pyrrolo[2,3-d]pyrimidin-4-yl]pyrrolidin-3-ol] the same measures were 0.0085 µM and greater than 10 µM.
For `CC(C)(C)c1nc(N2CC3(COC3)C2)c2ccn(Cc3ncccc3Cl)c2n1` [Example 49, 6-[2-tert-butyl-7-[(3-chloropyridin-2-yl)methyl]pyrrolo[2,3-d]pyrimidin-4-yl]-2-oxa-6-azaspiro[3.3]heptane] the same measures were 0.0107 µM and 0.307 µM.
